We go through three compounds from US6821743B2, “Human endothelin receptor” (Shionogi Sieyaku Kabushiki Kaisha, priority 1991, dated 2004).

Entries after “also recorded” stand apart in the source; their conditions may differ. Bridge positions count the residues as written; N and C are the ends. Peptide text beside a SMILES is read from it.

In one assay the target is T1, ETB-receptor (Homo sapiens, UniProt P24530).
T1 construct: expressed in transfected cells; host or cells: COS-7 cells
T1 sequence (P24530 27-442): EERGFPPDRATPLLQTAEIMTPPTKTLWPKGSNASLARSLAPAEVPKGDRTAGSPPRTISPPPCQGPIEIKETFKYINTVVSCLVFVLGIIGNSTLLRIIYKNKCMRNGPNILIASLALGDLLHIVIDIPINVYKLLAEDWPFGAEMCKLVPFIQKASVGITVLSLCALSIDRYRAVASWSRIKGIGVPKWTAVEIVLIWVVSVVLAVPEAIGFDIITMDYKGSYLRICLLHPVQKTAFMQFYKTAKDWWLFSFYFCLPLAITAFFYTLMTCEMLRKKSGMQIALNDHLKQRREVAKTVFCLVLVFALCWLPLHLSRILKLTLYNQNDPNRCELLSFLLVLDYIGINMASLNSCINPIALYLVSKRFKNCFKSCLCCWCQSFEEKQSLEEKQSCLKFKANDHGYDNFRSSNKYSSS
Briefly: Competitive 125I-ET-1 binding assay on COS-7 cells transfected with CDM8-pHETBR.

In assay [1] the target is T2, ETA-receptor (Homo sapiens, UniProt P25101).
T2 sequence (P25101 21-427): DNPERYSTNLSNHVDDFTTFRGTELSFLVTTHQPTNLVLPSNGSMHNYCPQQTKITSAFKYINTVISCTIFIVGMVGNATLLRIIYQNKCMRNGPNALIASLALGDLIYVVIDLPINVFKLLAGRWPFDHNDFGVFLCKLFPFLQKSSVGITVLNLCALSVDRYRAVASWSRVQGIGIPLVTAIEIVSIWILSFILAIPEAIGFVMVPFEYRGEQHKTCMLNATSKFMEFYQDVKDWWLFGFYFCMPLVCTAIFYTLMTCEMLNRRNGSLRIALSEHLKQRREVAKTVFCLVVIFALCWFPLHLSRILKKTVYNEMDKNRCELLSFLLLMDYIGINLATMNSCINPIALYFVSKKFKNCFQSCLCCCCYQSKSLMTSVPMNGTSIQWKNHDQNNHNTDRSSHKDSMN
In words: Competitive 125I-ET-1 binding assay on COS-7 cells transfected with CDM8-phETIR. Also noted: expressed in transfected cells; host or cells: COS-7 cells. The note with it: displacement of 50 pM 125I-ET-1, transfected COS-7 cells, 37° C. for 60 min.

For assay [2] the following is noted: in vivo, previously shown; cited from earlier work.
For assay [3], the target named is T2, ETA-receptor. In words: Inward current in Xenopus laevis oocytes injected with ETA-receptor mRNA. In kind it is cell-based. The note with it: 1×10^−7 M peptide, holding potential −60 mV, 20° C.
Assay [4] relates to rat A-10 vascular smooth muscle cell. The note with it: J. Biol. Chem. 265, 14044-14049 (1990); cited from earlier work.

`CC[C@H](C)[C@H](NC(=O)[C@H](CC(=O)O)NC(=O)[C@H](CC(C)C)NC(=O)[C@H](Cc1cnc[nH]1)NC(=O)[C@@H]1CSSC[C@H](N)C(=O)N[C@@H](CO)C(=O)N[C@H]2CSSC[C@H](NC(=O)[C@H](CCC(=O)O)NC(=O)[C@H](CCCCN)NC(=O)[C@H](CC(=O)O)NC(=O)[C@H](CC(C)C)NC(=O)[C@H](Cc3c[nH]c4ccccc34)NC(=O)[C@H](CO)NC(=O)[C@H](CO)NC2=O)C(=O)N[C@@H](C(C)C)C(=O)N[C@@H](Cc2ccc(O)cc2)C(=O)N[C@@H](Cc2ccccc2)C(=O)N1)C(=O)N[C@H](C(=O)N[C@@H](Cc1c[nH]c2ccccc12)C(=O)O)[C@@H](C)CC` [ET-2, Endothelin 2] (H-CSCSSWLDKECVYFCHLDIIW-OH; disulfide 1-15, 3-11): the concentration for half-maximal inhibition (IC50) (as a rule, the concentration that inhibits the measured activity by half) on ETB-receptor (displacement of 125I-ET-1, COS cell transformed with CDM8-pHETBR) is approximately 1 nM; at ETA-receptor [1], 6.1 nM.
Regarding `CC[C@H](C)[C@H](NC(=O)[C@H](CC(=O)O)NC(=O)[C@H](CC(C)C)NC(=O)[C@H](Cc1c[nH]cn1)NC(=O)[C@@H]1CSSC[C@H](N)C(=O)N[C@@H](CO)C(=O)N[C@H]2CSSC[C@H](NC(=O)[C@H](CCC(=O)O)NC(=O)[C@H](CCCCN)NC(=O)[C@H](CC(=O)O)NC(=O)[C@H](CC(C)C)NC(=O)[C@H](Cc3c[nH]c4ccccc34)NC(=O)[C@H](CO)NC(=O)[C@H](CO)NC2=O)C(=O)N[C@@H](C(C)C)C(=O)N[C@@H](Cc2ccc(O)cc2)C(=O)N[C@@H](Cc2ccccc2)C(=O)N1)C(=O)N[C@H](C(=O)N[C@@H](Cc1c[nH]c2ccccc12)C(=O)O)[C@@H](C)CC` [ET-2, Endothelin 2] (H-CSCSSWLDKECVYFCHLDIIW-OH; disulfide 1-15, 3-11; N-terminus and C-terminus assumed), the “affinity of the receptor (FIG. 4)” value on ETB-receptor (transformant containing CDM8-pHETBR) is reported as “almost the same affinity”. The vasoconstrictor strength entry in assay [2] was “much more strong vasoconstrictors than ET-3”. Also, the “inward current recorded from the oocyte” value on ETA-receptor [3] was “the same value of current; also recorded: A similar inward current”. The “inhibition of binding of 125I-ET-1” value in assay [4] is given as “inhibit the binding of ^125I-ET-1”.
Turning to `CC[C@H](C)[C@H](NC(=O)[C@H](CC(=O)O)NC(=O)[C@H](CC(C)C)NC(=O)[C@H](Cc1c[nH]cn1)NC(=O)[C@@H]1CSSC[C@H](N)C(=O)N[C@@H](CO)C(=O)N[C@H]2CSSC[C@H](NC(=O)[C@H](CCC(=O)O)NC(=O)[C@H](CCCCN)NC(=O)[C@H](CC(=O)O)NC(=O)[C@H](CCSC)NC(=O)[C@H](CC(C)C)NC(=O)[C@H](CO)NC(=O)[C@H](CO)NC2=O)C(=O)N[C@@H](C(C)C)C(=O)N[C@@H](Cc2ccc(O)cc2)C(=O)N[C@@H](Cc2ccccc2)C(=O)N1)C(=O)N[C@H](C(=O)N[C@@H](Cc1c[nH]c2ccccc12)C(=O)O)[C@@H](C)CC` [ET-1, Endothelin 1], in assay [2], the vasoconstrictor strength result is recorded as “much more strong vasoconstrictors than ET-3”. The “inhibition of binding of 125I-ET-1” value in assay [4] is “inhibit the binding of ^125I-ET-1”.
